Where a name gives a salt, the structure may show the parent alone.
Legend:
PI3Kβ = molecular target: T1, PI3Kβ (Homo sapiens, UniProt P42338); assay: kinobeads assay, PI3Kβ; assay type: binding; details: 1:1 mix of Jurkat and Ramos cell lysates, read-out: Inhibition values (IC50 in μM) as determined in the kinobeads assay, PI3Kβ
T1 construct: endogenous in cells; host or cells: Jurkat (ATCC TIB-152, clone E6-1) and Ramos (ATCC CRL-1596), 1:1 lysate mix
Outline: (§1)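 Inhibitor at serial dilutions (1:3, 9 steps) competed for binding to an affinity matrix of two immobilized ligands in a 1:1 Jurkat/Ramos lysate at 5 mg/ml protein, 2 h in a cold room. Bound kinases were eluted, quantified by antibody dot blot with infrared detection, and IC50 was taken from dose-response curves.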

PI3Kα = molecular target: T2, PI3Kα (Homo sapiens, UniProt P42336); assay: kinobeads assay, PI3Kα; assay type: binding; details: 1:1 mix of Jurkat and Ramos cell lysates, read-out: Inhibition values (IC50 in μM) as determined in the kinobeads assay, PI3Kα
T2 construct: endogenous in cells; host or cells: Jurkat (ATCC TIB-152, clone E6-1) and Ramos (ATCC CRL-1596), 1:1 lysate mix
T2 sequence (P42336 whole entry): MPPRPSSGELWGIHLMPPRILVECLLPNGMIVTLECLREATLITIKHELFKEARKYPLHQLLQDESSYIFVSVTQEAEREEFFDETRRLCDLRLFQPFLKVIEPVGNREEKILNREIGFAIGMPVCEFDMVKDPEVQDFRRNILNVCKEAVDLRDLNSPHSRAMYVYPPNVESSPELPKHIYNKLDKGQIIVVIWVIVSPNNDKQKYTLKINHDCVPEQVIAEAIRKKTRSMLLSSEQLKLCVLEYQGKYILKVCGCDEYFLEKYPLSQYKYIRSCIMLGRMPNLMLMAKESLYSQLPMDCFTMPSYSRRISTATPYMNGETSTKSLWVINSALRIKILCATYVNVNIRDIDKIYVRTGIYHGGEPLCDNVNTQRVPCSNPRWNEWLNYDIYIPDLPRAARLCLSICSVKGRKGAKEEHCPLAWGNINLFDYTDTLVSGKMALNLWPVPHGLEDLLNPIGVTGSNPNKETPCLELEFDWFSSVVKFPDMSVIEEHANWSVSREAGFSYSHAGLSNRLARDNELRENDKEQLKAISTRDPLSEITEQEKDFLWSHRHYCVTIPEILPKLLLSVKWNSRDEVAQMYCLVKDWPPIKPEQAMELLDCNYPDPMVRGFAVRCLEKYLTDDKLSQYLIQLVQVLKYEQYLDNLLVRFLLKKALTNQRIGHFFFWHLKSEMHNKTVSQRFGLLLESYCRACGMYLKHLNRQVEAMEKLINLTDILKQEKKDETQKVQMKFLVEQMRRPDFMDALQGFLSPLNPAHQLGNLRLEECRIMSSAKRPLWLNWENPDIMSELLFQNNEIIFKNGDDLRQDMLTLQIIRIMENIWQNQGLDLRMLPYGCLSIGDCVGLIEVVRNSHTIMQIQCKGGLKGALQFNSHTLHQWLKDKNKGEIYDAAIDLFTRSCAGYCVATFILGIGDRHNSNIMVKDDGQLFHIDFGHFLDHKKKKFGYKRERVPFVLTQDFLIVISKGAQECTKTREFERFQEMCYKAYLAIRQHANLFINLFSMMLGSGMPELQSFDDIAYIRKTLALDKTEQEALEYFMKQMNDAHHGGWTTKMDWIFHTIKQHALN
T2 sequence (P27986 whole entry partner): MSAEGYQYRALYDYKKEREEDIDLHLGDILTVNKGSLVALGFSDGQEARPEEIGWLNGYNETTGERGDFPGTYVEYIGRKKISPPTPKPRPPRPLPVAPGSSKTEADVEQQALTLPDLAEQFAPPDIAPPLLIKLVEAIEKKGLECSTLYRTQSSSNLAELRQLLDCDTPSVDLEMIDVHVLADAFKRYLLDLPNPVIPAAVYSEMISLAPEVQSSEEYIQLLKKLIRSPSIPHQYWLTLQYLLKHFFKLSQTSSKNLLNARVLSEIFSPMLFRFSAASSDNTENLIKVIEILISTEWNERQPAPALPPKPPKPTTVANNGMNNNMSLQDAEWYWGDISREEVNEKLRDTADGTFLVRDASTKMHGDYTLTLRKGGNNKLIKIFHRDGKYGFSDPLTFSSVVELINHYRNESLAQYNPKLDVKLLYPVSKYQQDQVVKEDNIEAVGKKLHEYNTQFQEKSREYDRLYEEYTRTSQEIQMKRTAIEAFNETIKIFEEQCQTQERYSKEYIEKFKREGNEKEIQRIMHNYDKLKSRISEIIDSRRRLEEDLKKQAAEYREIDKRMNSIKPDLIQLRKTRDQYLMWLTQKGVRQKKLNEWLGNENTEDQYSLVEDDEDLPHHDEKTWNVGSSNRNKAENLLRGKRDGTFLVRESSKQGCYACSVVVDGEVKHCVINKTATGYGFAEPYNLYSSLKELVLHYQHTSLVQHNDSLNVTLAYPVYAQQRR
Outline: as §1

[1] = molecular target: T3, DNA-dependent protein kinase (DNA-PK) (Homo sapiens, UniProt P78527); assay: kinobeads assay, DNA-PK; assay type: binding; details: 1:1 mix of Jurkat and Ramos cell lysates, read-out: Inhibition values (IC50 in μM) as determined in the kinobeads assay, DNA-PK
T3 construct: endogenous in cells; host or cells: Jurkat (ATCC TIB-152, clone E6-1) and Ramos (ATCC CRL-1596), 1:1 lysate mix
Outline: as §1

mTOR = molecular target: T4, mTOR (Homo sapiens, UniProt P42345); assay: mTOR kinobeads assay (competition binding in cell lysate, dot blot detection); details: 1:1 mix of Jurkat and Ramos cell lysates, read-out: Inhibition values (IC50 in μM) as determined in the kinobeads assay, mTor
T4 construct: endogenous in cells; host or cells: Jurkat (ATCC TIB-152, clone E6-1) and Ramos (ATCC CRL-1596), 1:1 lysate mix
Outline: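 Competition binding in a 1:1 mix of Jurkat and Ramos cell lysates at 5 mg/ml total protein, with compounds in a 1:3 dilution series and an affinity matrix of two immobilized ligands, 2 h in the cold with shaking. mTOR captured on the beads was eluted and quantified by antibody dot blot with infrared detection. IC50 came from dose-response curves.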

PI3Kγ = molecular target: T5, PI3Kγ (Homo sapiens, UniProt P48736); assay: kinobeads assay, PI3Kγ; assay type: binding; details: 1:1 mix of Jurkat and Ramos cell lysates, read-out: Inhibition values (IC50 in μM) as determined in the kinobeads assay, PI3Kγ
T5 construct: endogenous in cells; host or cells: Jurkat (ATCC TIB-152, clone E6-1) and Ramos (ATCC CRL-1596), 1:1 lysate mix
T5 sequence (P48736 whole entry): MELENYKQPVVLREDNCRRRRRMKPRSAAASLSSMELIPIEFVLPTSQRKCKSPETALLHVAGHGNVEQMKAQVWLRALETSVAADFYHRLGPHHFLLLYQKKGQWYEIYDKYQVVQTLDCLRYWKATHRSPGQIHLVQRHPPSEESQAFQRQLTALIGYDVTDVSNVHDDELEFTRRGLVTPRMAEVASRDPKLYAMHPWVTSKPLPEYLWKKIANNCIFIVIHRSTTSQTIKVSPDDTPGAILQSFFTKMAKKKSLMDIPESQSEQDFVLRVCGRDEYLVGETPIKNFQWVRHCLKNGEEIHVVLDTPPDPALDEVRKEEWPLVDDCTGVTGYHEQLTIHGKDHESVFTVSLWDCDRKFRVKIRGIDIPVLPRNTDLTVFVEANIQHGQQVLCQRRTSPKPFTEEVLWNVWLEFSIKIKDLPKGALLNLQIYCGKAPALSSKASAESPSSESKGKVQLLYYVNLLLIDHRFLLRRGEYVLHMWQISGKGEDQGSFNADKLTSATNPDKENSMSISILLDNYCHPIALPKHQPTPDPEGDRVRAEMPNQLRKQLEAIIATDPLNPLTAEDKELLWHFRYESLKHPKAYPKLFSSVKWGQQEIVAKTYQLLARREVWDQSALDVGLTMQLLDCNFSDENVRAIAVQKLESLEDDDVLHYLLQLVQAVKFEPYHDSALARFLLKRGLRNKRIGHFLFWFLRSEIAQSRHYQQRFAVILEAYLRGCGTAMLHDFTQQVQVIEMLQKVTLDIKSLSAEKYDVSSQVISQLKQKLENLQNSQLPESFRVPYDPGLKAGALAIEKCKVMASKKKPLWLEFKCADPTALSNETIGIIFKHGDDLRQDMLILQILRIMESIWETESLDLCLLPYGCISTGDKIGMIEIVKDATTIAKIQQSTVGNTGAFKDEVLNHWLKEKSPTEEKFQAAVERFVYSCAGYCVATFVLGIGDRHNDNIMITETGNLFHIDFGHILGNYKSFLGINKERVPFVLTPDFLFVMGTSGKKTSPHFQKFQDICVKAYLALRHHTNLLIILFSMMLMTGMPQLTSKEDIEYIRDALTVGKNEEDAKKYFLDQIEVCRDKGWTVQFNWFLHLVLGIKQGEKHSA
Outline: as §1

PI3Kδ = molecular target: T6, PI3Kδ (Homo sapiens, UniProt O00329); assay: kinobeads assay, PI3Kδ; assay type: binding; details: 1:1 mix of Jurkat and Ramos cell lysates, read-out: Inhibition values (IC50 in μM) as determined in the kinobeads assay, PI3Kδ
T6 construct: endogenous in cells; host or cells: Jurkat (ATCC TIB-152, clone E6-1) and Ramos (ATCC CRL-1596), 1:1 lysate mix
T6 sequence (O00329 whole entry): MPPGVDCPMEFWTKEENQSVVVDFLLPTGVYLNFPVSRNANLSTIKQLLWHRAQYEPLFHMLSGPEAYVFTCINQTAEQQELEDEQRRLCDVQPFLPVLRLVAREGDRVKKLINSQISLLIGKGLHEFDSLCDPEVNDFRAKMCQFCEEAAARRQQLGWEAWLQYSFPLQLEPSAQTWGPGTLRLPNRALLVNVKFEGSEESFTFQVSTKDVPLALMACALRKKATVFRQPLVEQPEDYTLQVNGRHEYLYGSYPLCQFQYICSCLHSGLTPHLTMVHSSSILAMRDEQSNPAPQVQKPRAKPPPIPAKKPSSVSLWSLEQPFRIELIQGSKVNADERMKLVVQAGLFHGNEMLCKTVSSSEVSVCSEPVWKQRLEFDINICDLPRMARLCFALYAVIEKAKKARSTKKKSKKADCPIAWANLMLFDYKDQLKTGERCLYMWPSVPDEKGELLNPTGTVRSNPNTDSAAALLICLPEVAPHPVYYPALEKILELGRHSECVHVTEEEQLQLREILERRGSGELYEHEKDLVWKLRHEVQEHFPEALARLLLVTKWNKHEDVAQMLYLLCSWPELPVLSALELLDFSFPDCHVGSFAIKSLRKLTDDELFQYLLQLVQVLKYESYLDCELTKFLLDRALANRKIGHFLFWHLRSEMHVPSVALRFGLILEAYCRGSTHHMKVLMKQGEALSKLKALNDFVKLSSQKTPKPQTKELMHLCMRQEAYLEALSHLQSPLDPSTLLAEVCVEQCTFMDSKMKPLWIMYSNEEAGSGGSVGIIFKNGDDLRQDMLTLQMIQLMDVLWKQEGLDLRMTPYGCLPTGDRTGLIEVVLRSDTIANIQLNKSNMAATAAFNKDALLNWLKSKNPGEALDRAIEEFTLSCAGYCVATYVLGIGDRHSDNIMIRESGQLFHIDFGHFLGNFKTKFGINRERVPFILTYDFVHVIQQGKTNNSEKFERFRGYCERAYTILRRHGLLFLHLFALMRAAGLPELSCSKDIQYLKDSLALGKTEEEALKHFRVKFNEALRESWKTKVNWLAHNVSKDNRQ
T6 sequence (P27986 whole entry partner): as the sequence (P27986 whole entry partner) above
Outline: as §1

T1 sequence (P42338 whole entry): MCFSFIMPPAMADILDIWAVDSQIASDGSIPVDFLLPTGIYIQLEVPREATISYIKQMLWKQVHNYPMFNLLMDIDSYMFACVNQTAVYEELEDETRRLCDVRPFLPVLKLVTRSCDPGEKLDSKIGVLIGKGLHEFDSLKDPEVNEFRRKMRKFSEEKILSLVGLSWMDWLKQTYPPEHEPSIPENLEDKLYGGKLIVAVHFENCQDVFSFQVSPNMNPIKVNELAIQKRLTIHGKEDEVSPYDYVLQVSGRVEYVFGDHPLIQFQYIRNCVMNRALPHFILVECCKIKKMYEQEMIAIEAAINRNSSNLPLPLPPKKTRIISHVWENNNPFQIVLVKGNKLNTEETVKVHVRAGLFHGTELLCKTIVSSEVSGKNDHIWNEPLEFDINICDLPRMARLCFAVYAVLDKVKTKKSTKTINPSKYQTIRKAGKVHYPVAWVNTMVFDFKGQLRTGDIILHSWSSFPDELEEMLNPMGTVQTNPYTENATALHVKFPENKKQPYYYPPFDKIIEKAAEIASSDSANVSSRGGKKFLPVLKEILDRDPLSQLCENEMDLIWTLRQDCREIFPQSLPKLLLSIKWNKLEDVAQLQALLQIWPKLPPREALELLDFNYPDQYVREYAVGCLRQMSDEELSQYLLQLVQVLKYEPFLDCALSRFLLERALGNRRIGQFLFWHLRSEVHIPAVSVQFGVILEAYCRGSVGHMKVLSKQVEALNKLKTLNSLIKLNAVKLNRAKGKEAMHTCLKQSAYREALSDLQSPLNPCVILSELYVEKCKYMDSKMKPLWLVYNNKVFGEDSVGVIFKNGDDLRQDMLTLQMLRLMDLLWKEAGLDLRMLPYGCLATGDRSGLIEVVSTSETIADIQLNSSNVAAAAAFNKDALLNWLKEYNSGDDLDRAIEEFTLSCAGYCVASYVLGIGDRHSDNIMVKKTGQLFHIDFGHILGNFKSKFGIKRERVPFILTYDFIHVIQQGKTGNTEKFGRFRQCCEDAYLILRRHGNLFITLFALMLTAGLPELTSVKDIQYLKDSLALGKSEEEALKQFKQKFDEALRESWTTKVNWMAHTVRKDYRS
T1 sequence (P27986 whole entry partner): as the sequence (P27986 whole entry partner) above

Structure (SMILES): C[C@H]1COCCN1c1nc2c(c(-c3ccc(NC(=O)NC4CC4)cc3)n1)CN(C(=O)C1CCCN1)C2 (stereo partly drawn) [Example 41, 1-cyclopropyl-3-(4-(2-((S)-3-methylmorpholino)-6-(pyrrolidine-2-carbonyl)-6,7-dihydro-5H-pyrrolo[3,4-d]pyrimidin-4-yl)phenyl)urea hydrochloride]
- IC50 (PI3Kβ): 10 to 100 µM
- IC50 (PI3Kα): 10 to 100 µM
- IC50 [1]: > 100 µM
- IC50 (mTOR): 1 to 10 µM
- IC50 (PI3Kγ): 10 to 100 µM
- IC50 (PI3Kδ): 10 to 100 µM

Structure (SMILES): C[C@H]1COCCN1c1nc2c(c(-c3ccc(NC(=O)NC4CC4)cc3)n1)CN(C(N)=O)C2 [Example 42, (S)-4-(4-(3-cyclopropylureido)phenyl)-2-(3-methylmorpholino)-5H-pyrrolo[3,4-d]pyrimidine-6(7H)-carboxamide 2,2,2-trifluoroacetate]
- IC50 (PI3Kβ): 10 to 100 µM
- IC50 (PI3Kα): 10 to 100 µM
- IC50 [1]: > 100 µM
- IC50 (mTOR): 0.1 to 1 µM
- IC50 (PI3Kγ): > 100 µM
- IC50 (PI3Kδ): 10 to 100 µM

Structure (SMILES): O=C(NCCO)Nc1ccc(-c2nc(N3CC4CCC(C3)O4)nc3c2CNC3)cc1 [Example 43, 1-(4-(2-(8-oxa-3-azabicyclo[3.2.1]octan-3-yl)-6,7-dihydro-5H-pyrrolo[3,4-d]pyrimidin-4-yl)phenyl)-3-(2-hydroxyethyl)urea hydrochloride]
- IC50 (PI3Kβ): > 100 µM
- IC50 (PI3Kα): > 100 µM
- IC50 [1]: 1 to 10 µM
- IC50 (mTOR): ≤ 0.1 µM
- IC50 (PI3Kγ): > 100 µM
- IC50 (PI3Kδ): > 100 µM

Structure (SMILES): CCNC(=O)Nc1ccc(-c2nc(N3CC4CCC(C3)O4)nc3c2CNC3)cc1 [Example 44, 1-(4-(2-(8-oxa-3-azabicyclo[3.2.1]octan-3-yl)-6,7-dihydro-5H-pyrrolo[3,4-d]pyrimidin-4-yl)phenyl)-3-ethylurea hydrochloride]
- IC50 (PI3Kβ): 10 to 100 µM
- IC50 (PI3Kα): > 100 µM
- IC50 [1]: 10 to 100 µM
- IC50 (mTOR): 0.1 to 1 µM
- IC50 (PI3Kγ): > 100 µM
- IC50 (PI3Kδ): 10 to 100 µM

Structure (SMILES): CC(O)CNC(=O)Nc1ccc(-c2nc(N3CCOC[C@@H]3C)nc3c2CN(C(C)C)C3)cc1 (stereo partly drawn) [Example 45, 1-(2-hydroxypropyl)-3-(4-(6-isopropyl-2-((S)-3-methylmorpholino)-6,7-dihydro-5H-pyrrolo[3,4-d]pyrimidin-4-yl)phenyl)urea]
- IC50 (PI3Kβ): > 100 µM
- IC50 (PI3Kα): 10 to 100 µM
- IC50 [1]: > 100 µM
- IC50 (mTOR): 1 to 10 µM
- IC50 (PI3Kγ): > 100 µM
- IC50 (PI3Kδ): > 100 µM

Structure (SMILES): CCNC(=O)Nc1ccc(-c2nc(N3CCOC[C@@H]3C)nc3c2CN(C(C)C)C3)cc1 [Example 46, (S)-1-ethyl-3-(4-(6-isopropyl-2-(3-methylmorpholino)-6,7-dihydro-5H-pyrrolo[3,4-d]pyrimidin-4-yl)phenyl)urea 2,2,2-trifluoroacetate]
- IC50 (PI3Kβ): > 100 µM
- IC50 (PI3Kα): > 100 µM
- IC50 [1]: > 100 µM
- IC50 (mTOR): 1 to 10 µM
- IC50 (PI3Kγ): > 100 µM
- IC50 (PI3Kδ): > 100 µM

Structure (SMILES): C[C@H]1COCCN1c1nc2c(c(-c3ccc(NC(=O)NC4CC4)cc3)n1)CN(C(=O)CN1CCOCC1)C2 [Example 47, (S)-1-cyclopropyl-3-(4-(2-(3-methylmorpholino)-6-(2-morpholinoacetyl)-6,7-dihydro-5H-pyrrolo[3,4-d]pyrimidin-4-yl)phenyl)urea 2,2,2-trifluoroacetate]
- IC50 (PI3Kβ): 10 to 100 µM
- IC50 (PI3Kα): > 100 µM
- IC50 [1]: > 100 µM
- IC50 (mTOR): 1 to 10 µM
- IC50 (PI3Kγ): > 100 µM
- IC50 (PI3Kδ): > 100 µM

Structure (SMILES): CC(C)CN1Cc2nc(N3CC4CCC(C3)O4)nc(-c3ccc(NC(=O)NCCO)cc3)c2C1 [Example 48, 1-(4-(2-(8-oxa-3-azabicyclo[3.2.1]octan-3-yl)-6-isobutyl-6,7-dihydro-5H-pyrrolo[3,4-d]pyrimidin-4-yl)phenyl)-3-(2-hydroxyethyl)urea 2,2,2-trifluoroacetate]
- IC50 (PI3Kβ): > 100 µM
- IC50 (PI3Kα): > 100 µM
- IC50 [1]: > 100 µM
- IC50 (mTOR): 1 to 10 µM
- IC50 (PI3Kγ): > 100 µM
- IC50 (PI3Kδ): > 100 µM

Structure (SMILES): CCNC(=O)Nc1ccc(-c2nc(N3CC4CCC(C3)O4)nc3c2CN(C(C)C)C3)cc1 [Example 49, 1-(4-(2-(8-oxa-3-azabicyclo[3.2.1]octan-3-yl)-6-isopropyl-6,7-dihydro-5H-pyrrolo[3,4-d]pyrimidin-4-yl)phenyl)-3-ethylurea 2,2,2-trifluoroacetate]
- IC50 (PI3Kβ): > 100 µM
- IC50 (PI3Kα): > 100 µM
- IC50 [1]: > 100 µM
- IC50 (mTOR): 1 to 10 µM
- IC50 (PI3Kγ): > 100 µM
- IC50 (PI3Kδ): > 100 µM

Structure (SMILES): CS(=O)(=O)N1Cc2nc(N3CC4CCC(C3)O4)nc(-c3ccc(NC(=O)NC4CC4)cc3)c2C1 [Example 50, 1-(4-(2-(8-oxa-3-azabicyclo[3.2.1]octan-3-yl)-6-(methylsulfonyl)-6,7-dihydro-5H-pyrrolo[3,4-d]pyrimidin-4-yl)phenyl)-3-cyclopropylurea]
- IC50 (PI3Kβ): > 100 µM
- IC50 (PI3Kα): > 100 µM
- IC50 [1]: > 100 µM
- IC50 (mTOR): 1 to 10 µM
- IC50 (PI3Kγ): > 100 µM
- IC50 (PI3Kδ): > 100 µM

Structure (SMILES): CC(CO)NC(=O)Nc1ccc(-c2nc(N3CCOC[C@@H]3C)nc3c2CN(C(C)C)C3)cc1 (stereo partly drawn) [Example 51, 1-(1-hydroxypropan-2-yl)-3-(4-(6-isopropyl-2-((S)-3-methylmorpholino)-6,7-dihydro-5H-pyrrolo[3,4-d]pyrimidin-4-yl)phenyl)urea 2,2,2-trifluoroacetate]
- IC50 (PI3Kβ): > 100 µM
- IC50 (PI3Kα): > 100 µM
- IC50 [1]: > 100 µM
- IC50 (mTOR): 1 to 10 µM
- IC50 (PI3Kγ): > 100 µM
- IC50 (PI3Kδ): > 100 µM

Structure (SMILES): CC(C)N1Cc2nc(N3CCOC[C@@H]3C)nc(-c3ccc(NC(=O)NCCC#N)cc3)c2C1 [Example 52, (S)-1-(2-cyanoethyl)-3-(4-(6-isopropyl-2-(3-methylmorpholino)-6,7-dihydro-5H-pyrrolo[3,4-d]pyrimidin-4-yl)phenyl)urea 2,2,2-trifluoroacetate]
- IC50 (PI3Kβ): > 100 µM
- IC50 (PI3Kα): > 100 µM
- IC50 [1]: > 100 µM
- IC50 (mTOR): 1 to 10 µM
- IC50 (PI3Kγ): > 100 µM
- IC50 (PI3Kδ): > 100 µM
